Biological target: P2Y purinoceptor 1 (Homo sapiens, UniProt P47900)
Assay: Scintillation Proximity Assay (SPA): A SPA membrane binding assay was used to identify inhibitors of [33P] […] Binding reactions were performed in 384-well OptiPlates (PerkinElmer Life Sciences, Cat #6007299) in a volume of 50 μL containing 15 fmol of P2Y1 receptor (1.7 μg of total protein), 0.3 nM [33P] […] Reactions were allowed to proceed to completion at room temperature for 1 hour followed by centrifugation of the plate for 5 min. About 40 μL of the aqueous solution was aspirated. Plates were sealed and the [33P]

P2Y purinoceptor 1, sequence (P47900 whole entry): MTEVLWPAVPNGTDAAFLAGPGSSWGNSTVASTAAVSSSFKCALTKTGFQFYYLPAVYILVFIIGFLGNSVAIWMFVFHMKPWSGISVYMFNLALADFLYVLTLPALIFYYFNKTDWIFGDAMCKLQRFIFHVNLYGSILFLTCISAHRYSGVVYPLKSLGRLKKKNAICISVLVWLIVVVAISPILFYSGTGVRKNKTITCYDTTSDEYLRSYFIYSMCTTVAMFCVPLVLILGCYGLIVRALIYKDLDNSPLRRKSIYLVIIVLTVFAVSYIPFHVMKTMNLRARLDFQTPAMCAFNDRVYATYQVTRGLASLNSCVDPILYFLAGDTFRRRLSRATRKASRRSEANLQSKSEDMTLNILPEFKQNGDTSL

Structure (SMILES)	Ki
CC1(C)CN(c2ccccc2NC(=O)Nc2ccc(OC(F)(F)F)cc2)c2c(O)cc(F)c(-c3ccc(Cl)s3)c21	9.5 nM
CC1(C)CN(c2ccccc2NC(=O)Nc2ccc(OC(F)(F)F)cc2)c2c(O)c(F)cc(-c3nc4cc(Cl)ccc4s3)c21	52 nM
CC1(C)CN(c2ccccc2NC(=O)Nc2ccc(OC(F)(F)F)cc2)c2c(O)ccc(-c3nc4ccc(Cl)cc4s3)c21	13 nM
CC1(C)CN(c2ccccc2NC(=O)Nc2csc(Cl)n2)c2c(O)cc(F)c(-c3nc4cc(Cl)ccc4s3)c21	13 nM
CC1(C)CN(c2ccccc2NC(=O)Nc2nc3ccc(Cl)nc3s2)c2c(O)cc(F)c(-c3nc4ccc(F)cc4s3)c21	16 nM
CC1(C)CN(c2ccccc2NC(=O)Nc2nc3ccc(Cl)cc3s2)c2c(O)cc(F)c(-c3nc4cc(Cl)ccc4s3)c21	98 nM
CC1(C)CN(c2ccccc2NC(=O)Nc2nc3ccc(F)cc3s2)c2c(O)cc(F)c(-c3nc4cc(Cl)ccc4s3)c21	48 nM
CC1(C)CN(c2ccccc2NC(=O)Nc2nc3ccc(Cl)nc3s2)c2c(O)cc(F)c(-c3nc4cc(Cl)ccc4s3)c21	39 nM
COc1cncc(-c2ccc(O)c3c2C(C)(C)CN3c2ccccc2NC(=O)Nc2ccc(OC(F)(F)F)cc2)c1	9.9 nM
CC1(C)CN(c2ccccc2NC(=O)Nc2nc3ccc(Cl)cc3s2)c2c(O)ccc(-c3nc4cc(F)ccc4s3)c21	17 nM
CC1(C)CN(c2ccccc2NC(=O)Nc2nc3ccc(Cl)nc3s2)c2c(O)cc(F)c(-c3ccc(Cl)s3)c21	8.2 nM
CC1(C)CN(c2ccccc2NC(=O)Nc2ccc(OC(F)(F)F)cc2)c2c(O)ccc(-c3ccc(F)nc3)c21	13 nM
CC1(C)CN(c2ccccc2NC(=O)Nc2nc3ccc(F)cc3s2)c2c(O)ccc(-c3nc4ccc(Cl)cc4s3)c21	78 nM
CC1(C)CN(c2ccccc2NC(=O)Nc2nc3ccc(Cl)cc3s2)c2c(O)cc(F)c(-c3nc4ccc(F)cc4s3)c21	90 nM

From ChEMBL document CHEMBL5725427, “7-hydroxy-indolinyl antagonists of P2Y1 receptor” (2017)
